Measurements as given in patent US20130196900A1, “ENHANCEMENT OF INNATE RESISTANCE TO INFECTION” (priority 2007, published 2013).
Where “and” joins values, the source holds several entries; their conditions need not be identical. Equal entries are not always repeated. Where two headings read alike, the source gives them in different places.

Columns and labels:
[1] = concentrations as high as 10 mg/kg or greater i.p.; cited from earlier work
[2] = tested on: MonoMac-1 cells; test: IL-8 assay in MonoMac-1 cells (ELISA); format: cell-based, human; conditions: securinine 25 μM vs carrier/buffer control
[3] = tested on: C. burnetii; conditions: 24 hours
[4] = tested on: host macrophages; conditions: 24 hours
[5] = tested on: cathepsin D; format: cell-based, mouse
[6] = tested on: TLR-1 to 10; test: TLR activation assay (THP1-Blue-CD14/SEAP); format: cell-based; conditions: securinine 50 or 25 μM, 24 hours
[7] = tested on: Phase II C. burnetii; format: in vivo
[8] = tested on: C. burnetii (Phase II Nine Mile strain); format: cell-based; conditions: 96 hours
[9] = tested on: p38 map kinase; test: p38 MAP kinase Western blot in Monomac-1 cells; format: cell-based, human; conditions: 50 μM securinine
[10] = tested on: C. burnetii (Phase II Nine Mile strain); format: cell-based; conditions: 96 hours; remark: listed apart in the source
[11] = tested on: Phase II C. burnetii; format: cell-based; conditions: 96 hours
[12] = tested on: peritoneal cells; test: Analysis of peritoneal cells after i.p. injection (FACS); format: in vivo, Balb/c mice; conditions: peritoneum, data not shown

## O=C1C=C2C=C[C@@H]3C[C@@]2(O1)[C@H]1CCCCN31 [securinine]
[1]
  toxicity: without any obvious toxicity
[2]
  IL-8 secretion: potent inducer of IL-8 secretion
[3]
  direct killing of C. burnetii: Neither of the compounds, at concentrations that induced killing in vitro and in vivo, induced direct killing
[4]
  direct killing of host cells: Neither of the compounds, at concentrations that induced killing in vitro and in vivo, induced direct killing
[5]
  cathepsin D expression in infected macrophages: induced cathepsin D expression
[6]
  TLR-1 to 10 signaling (SEAP release): not detected
[7]; 96 hr
  C. burnetii burden (viable bacterial counts): significantly (P value <0.05) lower
  spleen weights: significantly (P value <0.05) lower
[7]; in vivo, ip
  reduction in C. burnetii, PCR assay for bacterial DNA: 10 fold
  reduction in C. burnetii, viability assay: 10 fold
[8]
  C. burnetii killing: induced killing of C. burnetii
[9]
  p38Map kinase activity (phospho-p38): induces p38Map kinase activity
[10]
  C. burnetii killing: induced killing of C. burnetii
[11]
  percent C. burnetii killing: > 80%

## Pam3CGDPKHPKSF [FSL-1]
[3]
  direct killing of C. burnetii: Neither of the compounds, at concentrations that induced killing in vitro and in vivo, induced direct killing
[4]
  direct killing of host cells: Neither of the compounds, at concentrations that induced killing in vitro and in vivo, induced direct killing
[7]; in vivo
  bacterial burden by PCR, lower than buffer alone: > 10 fold
  bacterial counts by PCR: reduced bacterial counts
  efficiency in inducing enhanced C. burnetii clearance, share of animals: 61% and 100%
  mice showing a reduction of C. burnetii: 11 mice
  mice with lower spleen weight and bacterial burden: 5 out of 5
  spleen weight: significantly lower
  splenomegaly (spleen weight): reduced the splenomegaly
  total C. burnetii DNA from spleen and liver: lower
  viable bacterial counts in the spleen (bacLight FACS assay): enhanced clearance of C. burnetii
[7]; in vivo, ip
  spleen C. burnetii numbers (PCR quantification of bacterial DNA): reduced
[12]
  neutrophil and macrophage activation: CD11b and Ly6C expression: increased
[8]
  C. burnetii content of infected cells: less C. burnetii

## lipopolysaccharide [LPS]
[7]; in vivo
  benefit on C. burnetii infection in vivo: No benefit
[7]; in vivo, ip
  spleen C. burnetii numbers (PCR quantification of bacterial DNA): did not have an effect
[12]
  neutrophil and macrophage activation: CD11b and Ly6C expression: increased
[8]
  C. burnetii content of infected cells: less C. burnetii
